Measurements published in ChEMBL document CHEMBL5107969, “Alzheimer's disease: Updated multi-targets therapeutics are in clinical and in progress” (Eur J Med Chem, 2022).
Blank lines part the entries; values can stand above or below the molecule they belong to.

What was measured:
[1] = Drug uptake in CD-1 mouse brain at 10 mg/kg, po via gavage measured after 5 mins by LC-MS/MS analysis; format: ADME, organism-based; conditions: read-out: Ct
[2] = Drug uptake in CD-1 mouse plasma at 10 mg/kg, po via gavage measured after 5 mins by LC-MS/MS analysis; format: ADME, organism-based
HEK293 = assay: Induction of Nrf2/ARE transcriptional activation in human HEK293 cells measured after 24 hrs by Bright-Glo luciferase assay; format: cell-based; conditions: filed as activator
Homo sapiens = species: Homo sapiens; assay: Selectivity ratio of Ki for sigma1 receptor (unknown origin) to Ki for sigma2 receptor (unknown origin)
[3] = Drug concentration in […] mouse brain at 3 mg/kg, po measured after 30 mins; format: ADME, organism-based; conditions: read-out: Ct
[4] = biological target: T1, Amyloid-beta precursor protein (Homo sapiens, UniProt P05067); assay: Inhibition of human AChE-induced amyloid beta (1 to 40) aggregation (unknown origin)
Cholinesterase = Cholinesterase (Equus caballus, UniProt P81908); assay: Inhibition of equine serum BChE incubated for 15 mins by Ellman's method; format: cell-free
[5] = biological target: T1, Amyloid-beta precursor protein; assay: Inhibition of self-induced amyloid beta (1 to 42) (unknown origin) aggregation at 25 uM incubated for 24 hrs by Thioflavin T-based fluorometric assay relative to control
[6] = biological target: T1, Amyloid-beta precursor protein; assay: Disaggregation of self-induced amyloid beta (1 to 42) (unknown origin) aggregation at 25 uM incubated for 24 hrs by Thioflavin T-based fluorometric assay relative to control

T1 sequence (P05067 whole entry): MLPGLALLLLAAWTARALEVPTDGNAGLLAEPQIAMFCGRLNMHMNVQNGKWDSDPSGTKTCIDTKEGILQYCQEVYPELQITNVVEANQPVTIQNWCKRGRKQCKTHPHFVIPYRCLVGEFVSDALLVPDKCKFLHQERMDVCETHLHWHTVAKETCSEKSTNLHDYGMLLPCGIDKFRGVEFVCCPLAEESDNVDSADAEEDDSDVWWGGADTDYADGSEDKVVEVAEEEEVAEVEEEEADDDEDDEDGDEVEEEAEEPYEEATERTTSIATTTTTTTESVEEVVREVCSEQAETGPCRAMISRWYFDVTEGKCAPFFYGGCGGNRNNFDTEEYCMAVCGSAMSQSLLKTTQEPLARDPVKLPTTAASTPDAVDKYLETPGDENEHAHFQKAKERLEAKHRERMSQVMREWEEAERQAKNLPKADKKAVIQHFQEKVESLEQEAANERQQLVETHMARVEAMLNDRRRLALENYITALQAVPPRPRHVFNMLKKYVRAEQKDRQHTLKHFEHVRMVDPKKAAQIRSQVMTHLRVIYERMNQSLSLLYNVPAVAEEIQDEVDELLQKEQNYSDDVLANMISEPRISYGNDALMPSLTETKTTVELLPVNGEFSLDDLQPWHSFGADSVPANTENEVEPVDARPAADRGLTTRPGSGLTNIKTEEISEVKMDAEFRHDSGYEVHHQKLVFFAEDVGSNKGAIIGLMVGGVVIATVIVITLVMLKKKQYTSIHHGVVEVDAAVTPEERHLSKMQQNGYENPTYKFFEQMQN
Cholinesterase, sequence (P81908 whole entry): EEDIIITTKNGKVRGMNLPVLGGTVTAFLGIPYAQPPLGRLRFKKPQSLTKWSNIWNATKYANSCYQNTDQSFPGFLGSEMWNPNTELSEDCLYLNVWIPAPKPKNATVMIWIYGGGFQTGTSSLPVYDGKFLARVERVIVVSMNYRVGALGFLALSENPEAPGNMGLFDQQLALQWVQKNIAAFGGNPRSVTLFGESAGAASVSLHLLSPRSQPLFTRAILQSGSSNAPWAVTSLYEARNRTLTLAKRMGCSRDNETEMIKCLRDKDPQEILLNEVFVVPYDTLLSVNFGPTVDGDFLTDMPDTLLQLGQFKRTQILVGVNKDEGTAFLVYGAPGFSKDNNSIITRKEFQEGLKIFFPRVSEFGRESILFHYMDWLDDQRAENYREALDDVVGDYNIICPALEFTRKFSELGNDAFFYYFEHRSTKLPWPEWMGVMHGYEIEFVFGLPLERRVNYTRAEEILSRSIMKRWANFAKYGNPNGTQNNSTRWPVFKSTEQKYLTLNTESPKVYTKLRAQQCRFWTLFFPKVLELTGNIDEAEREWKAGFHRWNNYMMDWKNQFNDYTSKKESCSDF

SMILES: CCCOc1ccc2[nH]cc(CCNC(=O)CN(CCc3c[nH]c4ccc(OCc5ccccc5)cc34)C(=O)CCCC[C@@H]3CCSS3)c2c1
- CD (HEK293): 28.1 µM

SMILES: CCN(CCCCCCNC1=CC(=O)C(NCCCCCCN(CC)Cc2ccccc2OC)=CC1=O)Cc1ccccc1OC [MEMOQUIN]
- IC50 [4]: 28.3 µM

SMILES: CCN(CCCCOc1ccc(/C=C/C(=O)N2CCc3ccccc3C2)cc1OC)Cc1ccccc1
- IC50 (Cholinesterase): 0.0089 µM
- inhibition [5]: 53.9%
- Activity [6]: 43.8%

Continued, values first:

- concentration at 5 min [1]: 14.3 ng/mL
- concentration at 5 min [2]: 5.91 ng/mL
SMILES: CN(C)c1ccc(O)c(CNc2cccc3ccc(CO)nc23)c1

- Ratio Ki (Homo sapiens): 28
SMILES: O=c1ccoc2ccc(OCCCN3CCCCCC3)cc12

- concentration at 0.5 h [3]: 620 nM
SMILES: NC1=NC(c2ccc(F)cc2)NC(=O)N1 (centres undefined)
